Data on three molecules can be found in ChEMBL document CHEMBL1151005 (Bioorg Med Chem Lett, 1995).

The target of this assay is Human immunodeficiency virus type 1 reverse transcriptase (Human immunodeficiency virus 1, UniProt Q72547). Briefly: Inhibitory activity against HIV-1 Reverse transcriptase (RT) was determined.
With `CCN1c2cnccc2N(C)C(=O)c2cccnc21`, half-maximal inhibition (IC50) required 350 nM.
To `CCN1c2ccncc2N(C)C(=O)c2cccnc21` belongs 1600 nM; to `CCN1c2cnccc2C(=O)N(C)c2cccnc21`, 6400 nM.
